Test results reported in ChEMBL document CHEMBL4834488, “Improved Synthesis of New FDA-Approved Treatment for KRAS G12C Mutation in Non-small Cell Lung Cancer” (ACS Med Chem Lett, 2021).

Test: AUC in non-small-cell lung cancer/colorectal cancer patient serum at 960 mg, po
Assay type: ADME, cell-free
Design: dose 960 mg
Conditions: human

AUC: 65300 ng·h/mL
Compound: C=CC(=O)N1CCN(c2nc(=O)n(-c3c(C)ccnc3C(C)C)c3nc(-c4c(O)cccc4F)c(F)cc23)[C@@H](C)C1 [SOTORASIB]
